We go through ten compounds from patent EP0059983B1, “Substituted biphenyl compounds for use as a medicament” (THE WELLCOME FOUNDATION LIMITED, priority 1981, dated 1982).

Data set [1] has as its system hypercholesterolemic male rat. Description: Inhibition of dietary induced hypercholesterolemia in male rats (serum lipids). Type of data set: in vivo. Also on record: key to Cholesterol lowering / Triglyceride lowering: In = Inactive at dose tested; A = Activity> clofibrate; M = Activity≤ clofibrate. The conditions noted are these: for Cholesterol lowering / Triglyceride lowering: rats, efficacy compared to clofibrate, dose not given; for % change in serum from control HDL: HDL cholesterol; for % change in serum from control HDL / % change in serum from control VLDL & LDL / % change in serum from control Cholesterol / % change in serum from control Triglyceride: male rats, oral; for % change in serum from control VLDL & LDL: VLDL & LDL cholesterol (difference between total and HDL cholesterol); for % change in serum from control Cholesterol / % change in serum from control Triglyceride: twice daily 3 days and once on day 4. On the procedure:
Hypercholesterolemia was produced in male rats after 3 days in a diet of 0.4% cholesterol and 0.2% sodium cholate. Each group contained 4 rats. Compounds tested were given orally twice daily for 3 days and once on day 4. Control animals received the vehicle, methyl cellulose. The cholesterol-containing diet and compound treatment were started at the same time. Animals were bled before dietary and compound treatment and 3 hr after the last dose of compound on day 4. All bleedings were after a 4 hr fast. Total serum cholesterol, triglyceride and high density lipoprotein (HDL) cholesterol determined by the procedure and test kit supplied by Dow Diagnostics (Trademark of the Dow Chemical Co. Laboratories, Indianapolis, IN). Very low and low density lipoprotein (VLDL & LDL) cholesterol were determined by the difference between total and HDL cholesterol.
By the method of Example 5 various compounds of formula (IA) were assessed for their ability to reduce cholesterol and triglyceride levels in rats. The compounds were compared in efficacy to clofibrate.

A further data set deals with rats. Kind of data set: Oral toxicity in rats. As to conditions: oral administration to rats at upto 1 g/kg bodyweight. It is filed as in vivo.

Regarding `Cc1ccc(-c2ccccc2C(=O)O)cc1` [CH3, 2-(4-Methylphenyl)-benzoic acid], in data set [1], the Cholesterol lowering result was “M” and the Triglyceride lowering result is given as “M”.
Take `O=C(O)c1ccccc1-c1ccc(Cl)cc1` [Cl, 2-(4-Chlorophenyl)-benzoic acid]: in data set [1], the Cholesterol lowering entry is “M” and the Triglyceride lowering result was “In”.
Regarding `CCOC(=O)C(C)(C)Oc1ccc(Cl)cc1` [Clofibrate, reference compound], the “% change in serum from control HDL” value is given as −21% in data set [1] (dose 100 mg/kg/day) and −28% in data set [1] (dose 200 mg/kg/day). Further, the “% change in serum from control VLDL & LDL” value is 0% in data set [1] (dose 100 mg/kg/day) and −29% in data set [1] (dose 200 mg/kg/day). Moreover, the “% change in serum from control Cholesterol” value was 0% in data set [1] (dose 25 mg/kg/day), 0% in data set [1] (dose 50 mg/kg/day), 0% in data set [1] (dose 100 mg/kg/day) and −28% in data set [1] (dose 200 mg/kg/day). The “% change in serum from control Triglyceride” value is 0% in data set [1] (dose 25 mg/kg/day), −31% in data set [1] (dose 50 mg/kg/day), −33% in data set [1] (dose 100 mg/kg/day) and −40% in data set [1] (dose 200 mg/kg/day).
As to `CCc1ccc(-c2ccccc2C(=O)O)cc1` [Example C2H5, 2-(4-Ethylphenyl)-benzoic acid], in data set [1], the Cholesterol lowering entry is “A” and the Triglyceride lowering entry was “A”.
`O=C(O)c1ccccc1-c1ccc(F)cc1` [F, 2-(4-Fluorophenyl)-benzoic acid]: in data set [1], the Cholesterol lowering result is “In” and the Triglyceride lowering entry is reported as “M”.
For `CC(C)c1ccc(-c2ccccc2C(=O)O)cc1` [I C3H7, 2-(4-isoPropylphenyl)-benzoic acid], in data set [1], the Cholesterol lowering entry was “A” and the Triglyceride lowering entry was “A”.
With `O=C(O)c1ccccc1-c1ccc(C(F)(F)F)cc1` [IA(R=CF3), 2-(4-trifluoromethylphenyl)benzoic acid], in data set [1] (dose 25 mg/kg/day), the “% change in serum from control HDL” value is on record as −6%, the “% change in serum from control VLDL & LDL” value is −46%, the “% change in serum from control Cholesterol” value is on record as −40% and the “% change in serum from control Triglyceride” value is −43%. For the same compound, in data set [1] (dose 50 mg/kg/day), the “% change in serum from control HDL” value is on record as “+10%”, the “% change in serum from control VLDL & LDL” value was −64%, the “% change in serum from control Cholesterol” value is −56% and the “% change in serum from control Triglyceride” value is −53%. In data set [1] (dose 150 mg/kg/day), the “% change in serum from control HDL” value is reported as −15%, the “% change in serum from control VLDL & LDL” value is given as −52%, the “% change in serum from control Cholesterol” value is listed as −40% and the “% change in serum from control Triglyceride” value is −60%. Moreover, in data set [1] (dose 100 mg/kg/day), the “% change in serum from control Cholesterol” value is recorded as −51% and the “% change in serum from control Triglyceride” value is on record as −57%. For the same compound, in data set [1], the Cholesterol lowering entry is listed as “A” and the Triglyceride lowering result is listed as “A”. For the same compound, the deaths result in the data set on rats is on record as “no deaths were observed”.
Take `COc1ccc(-c2ccccc2C(=O)O)cc1` [OCH3, 2-(4-Methoxyphenyl)-benzoic acid]: in data set [1], the Cholesterol lowering entry was “M” and the Triglyceride lowering entry was “A”.
Taken in the same sequence, the figures for `CCCCc1ccc(-c2ccccc2C(=O)O)cc1` [n C4H9, 2-(4-n-butylphenyl)benzoic acid] were “A” and “A”.
Taken in the same sequence, the figures for `CC(C)(C)c1ccc(-c2ccccc2C(=O)O)cc1` [t C4H9, 2-(4-t-Butylphenyl)-benzoic acid] were “M” and “A”.
